Experimental data reported in patent US20060100257A1, “Inhibitors against the activation of ap-1 and nfat” (priority 2002, published 2006).

Tests used:
AP-1 [1] = assay: Inhibition of AP-1 activation by TNF α stimulation (pAP-1-Luc reporter, HeLa); format: cell-based, human; settings: TNF-α (40 ng/ml), 4 hours; for Inhibitory Ratio of AP-1 Activation(%) Drug Concentration 1 μg/mL: test compound 1 μg/mL; for Inhibitory Ratio of AP-1 Activation(%) Drug Concentration 10 μg/mL: test compound 10 μg/mL
Method: Measurement of Inhibition of AP-1 Activation by TNF α Stimulation
Using a transfection reagent (Effectene; QIAGEN), the human uterine cancer cell strain HeLa was transfected with a plasmid (pAP-1-Luc Reporter Plasmid: STRATAGENE) according to the QIAGEN's protocol, which was integrated with an oligonucleotide having seven tandem copies of AP-1 binding sequences (TGACTAA) on a upstream region of firefly luciferase gene (Luc), and the cells were incubated for 6 to 24 hours. Then, the cells were added with TNF-α (40 ng/ml) in the presence or absence of a test compound and incubated for 4 hours, and intracellular luciferase activity was measured by using PicaGene LT(TOYO INK MFG Co., Ltd.) and chemical luminescence measurement apparatus(SPECTRAFluor Plus; TECAN). The inhibitory ratio was obtained as a ratio relative to the value of the luciferase activity in the absence of the test compound.

AP-1 [2] = assay: Inhibition of AP-1 activation by forced expression of MEKK-1 (pAP-1-Luc reporter, HepG2); format: cell-based, human; settings: HepG2, MEKK-1 expression plasmid, 24 hours; for Inhibitory Ratio of AP-1 Activation(%) Drug Concentration 1 μM: test compound 1 μM; for Inhibitory Ratio of AP-1 Activation(%) Drug Concentration 1 μg/mL: test compound 1 μg/mL
Description: Measurement of Inhibition of AP-1 Activation by Forced Expression of MEKK-1
Using a transfection reagent (Effectene; QIAGEN), the human hepatoma cell strain HepG2 was cotransfected with a plasmid (pAP-1-Luc Reporter Plasmid: STRATAGENE), integrated with an oligonucleotide having seven tandem copies of AP-1 binding sequences (TGACTAA) on an upstream region of the firefly luciferase gene (Luc), and the MEKK-1 expression plasmid (pFCMEKK: STRATAGENE) according to the QIAGEN's protocol, and the cells were incubated for 20 to 24 hours. Then, after the cells were incubated in the presence or absence of a test compound for 24 hours, intracellular luciferase activity was measured by using PicaGene LT(TOYO INK MFG Co., Ltd.) and a chemical luminescence measurement apparatus (SPECTRAFluor Plus; TECAN). The inhibitory ratio was measured as a ratio relative to the value of the luciferase activity in the absence of the test compound.

NFAT [3] = assay: Inhibition of NFAT activation (2) (NFAT Luc reporter, HepG2); format: cell-based, human; settings: HepG2, TPA (200 nM) and ionomycin (2 μM); for Inhibition Ratio of NFAT Activation(%) Drug Concentration 1 μM: test compound 1 μM; for Inhibition Ratio of NFAT Activation(%) Drug Concentration 1 μg/mL: test compound 1 μg/mL
Method: Measurement of Inhibition of NFAT Activation (2)
Using a transfection reagent (Effectene; QIAGEN), the human hepatoma cell strain HepG2 was transfected with a plasmid (NFAT Luc) which was integrated with an NFAT binding sequence on a upstream region of the firefly luciferase gene (Luc) according to the QIAGEN's protocol, and the cells were incubated for 20 to 24 hours.
After incubation of the cells in the presence or absence of a test compound for 4 hours, TPA (200 nM) and ionomycin (2 μM) were added and the cells were incubated for 20 to 24 hours.
Then, intracellular luciferase activity was measured by using PicaGene LT(TOYO INK MFG Co., Ltd.) and a chemical luminescence measurement apparatus (SPECTRAFluor Plus; TECAN).
The inhibitory ratio was measured as a ratio relative to the value of the luciferase activity in the absence of the test compound.

NFAT [4] = assay: Inhibition of NFAT activation (1) (NFAT-LacZ reporter, Jurkat cell); format: cell-based; settings: A23187 and PMA, 4 hours
Method: Measurement of Inhibition of NFAT Activation (1)
A Jurkat cell transfected with a reporter plasmid (NFAT-LacZ), which was integrated with the NFAT binding sequence on a upstream region of the β-galactosidase gene (LacZ) according to the method described in the “Proceedings of The National Academy of Sciences of The United States of America” 1991, Vol. 88, No. 9, p. 3972-3976, was incubated for 4 hours in the Modified RPMI 1640 medium in the presence of A23187 as a calcium ionophore and PMA (Phorbol 12-myristate 13-acetate), and in the presence or absence of a test compound. Then, intracellular β-galactosidase activity was measured by the method described in the “Proceedings of The National Academy of Sciences of The United States of America” 1991, Vol. 88, No. 9, p. 3972-3976. The inhibitory ratio was obtained as a ratio relative to the value of the β-galactosidase activity in the absence of the test compound.

Row | SMILES | Inhibitory Ratio of AP-1 Activation(%) Drug Concentration 1 μg/mL (AP-1 [1]) | Inhibitory Ratio of AP-1 Activation(%) Drug Concentration 10 μg/mL (AP-1 [1]) | Inhibitory Ratio of AP-1 Activation(%) Drug Concentration 1 μg/mL (AP-1 [2]) | Inhibition Ratio of NFAT Activation(%) Drug Concentration 1 μg/mL (NFAT [3]) | further results
1 | O=C(Nc1cc(C(F)(F)F)cc(C(F)(F)F)c1)c1cc(Cl)ccc1O [Compound No. 50, N-[3,5-Bis(trifluoromethyl)phenyl]-5-chloro-2-hydroxybenzamide] | 42.4% | 89.1% | 99.4% | 99.5% | Inhibitory Ratio of AP-1 Activation(%) Drug Concentration 1 μM (AP-1 [2]): 90.7%; Inhibition Ratio of NFAT Activation(%) Drug Concentration 1 μM (NFAT [3]): 94.8%; Inhibitory Ratio of NFAT Activation(%) Drug Concentration 1 μM (NFAT [4]; test compound 1 μM): 70%; Inhibitory Ratio of NFAT Activation(%) Drug Concentration 10 μM (NFAT [4]; test compound 10 μM): 100%
2 | O=C(Nc1cc(C(F)(F)F)cc(C(F)(F)F)c1)c1cc(I)ccc1O [Compound No. 52, N-[3,5-bis(trifluoromethyl)phenyl]-2-hydroxy-5-iodobenzamide] | 25.4% | 82.4% | – | – | –
3 | CC(C)(C)c1ccc(O)c(C(=O)Nc2cc(C(F)(F)F)cc(C(F)(F)F)c2)c1 [Compound No. 56, N-[3,5-Bis(trifluoromethyl)phenyl]-5-[(1,1-dimethyl)ethyl]-2-hydroxybenzamide] | – | – | 96.3% | 99.7% | Inhibitory Ratio of AP-1 Activation(%) Drug Concentration 1 μM (AP-1 [2]): 82.6%; Inhibition Ratio of NFAT Activation(%) Drug Concentration 1 μM (NFAT [3]): 88.9%
4 | O=C(Nc1cc(C(F)(F)F)cc(C(F)(F)F)c1)c1cc(-c2ccccc2)ccc1O [Compound No. 67] | 18.1% | 60.9% | 94.8% | >99.9% | –
5 | O=C(Nc1cc(C(F)(F)F)cc(C(F)(F)F)c1)c1cc(-n2cccc2)ccc1O [Compound No. 71] | – | – | 98.0% | >99.9% | –
6 | CCOC(=O)c1sc(NC(=O)c2cc(Br)ccc2O)nc1-c1ccccc1 [compound 209, 2-(5-bromo-2-hydroxybenzoyl)amino-4-phenylthiazole-5-carboxylic acid ethyl ester] | 21.7% | 55.3% | – | – | –
7 | CC(C)(C)c1nc(NC(=O)c2cc(Br)ccc2O)sc1N1CCN(c2ccccc2)CC1 [compound 201, 5-Bromo-N-{4-[(1,1-dimethyl)ethyl]-5-(4-phenylpiperazin-1-yl)thiazol-2-yl}-2-hydroxybenzamide] | – | – | 79.1% | >99.9% | –
8 | CC(C)(C)c1nc(NC(=O)c2cc(Br)ccc2O)sc1N1CCOCC1 [compound 199, 5-Bromo-N-{4-[(1,1-dimethyl)ethyl]-5-morpholinothiazol-2-yl}-2-hydroxybenzamide] | – | – | 70.6% | >99.9% | –
9 | CCOC(=O)c1sc(NC(=O)c2cc(-c3cccs3)ccc2O)nc1-c1ccccc1 [compound 223, 2-[2-Hydroxy-5-(2-thienyl)benzoyl]amino-4-phenylthiazole-5-carboxylic acid ethyl ester] | – | 7.0% | – | – | –
10 | CC(=O)Oc1ccccc1C(=O)Nc1cc(Cl)cc(Cl)c1 [compound 172, 2-acetoxy-N-(3,5-dichlorophenyl)benzamide] | – | – | – | – | melting point: 218 to 219 °C
11 | CC(C)(C)C(=O)c1sc(NC(=O)c2cc(Cl)ccc2O)nc1C(C)(C)C [compound 195, 5-Chloro-N-{4-[(1,1-dimethyl)ethyl]-5-[(2,2-dimethyl)propionyl]thiazol-2-yl}-2-hydroxybenzamide] | – | – | 95.5% | 86.7% | Inhibitory Ratio of AP-1 Activation(%) Drug Concentration 1 μM (AP-1 [2]): 91.2%; Inhibition Ratio of NFAT Activation(%) Drug Concentration 1 μM (NFAT [3]): 96.8%
12 | O=C(Nc1cc(C(F)(F)F)cc(C(F)(F)F)c1)c1cc(C#Cc2ccccc2)ccc1O [Compound No. 65, N-[3,5-bis(trifluoromethyl)phenyl]-2-hydroxy-5-(phenylethynyl)benzamide] | – | 44.1% | – | – | –
